This is an account of results in patent publication US20220144854A1, “MACROCYCLIC COMPOUNDS” (ZENO MANAGEMENT, INC., priority 2019, published 2022).

In one assay the target is Mcl-1 (Homo sapiens, UniProt Q07820). Briefly: Mcl-1 Homogeneous Time Resolved Fluorescence (HTRF) binding assay. To be noted: HTRF; 4 nM Mcl-1, 100 nM FAM-Bak peptide; 10-dose, singlicate; read-out: Mcl-1 IC50.
Assay [1] concerns NCI-H929 (ATCC CRL-9068) cells. Briefly: NCI-H929 cell proliferation assay (CellTiter-Glo). It counts as cell-based. Particulars: 72 h of compound treatment. As to the method:
Cell proliferation was measured using the CellTiter-Glo® Luminescent Cell Viability Assay. The assay involved the addition of a single reagent (CellTiter-Glo® Reagent) directly to cells cultured in serum-supplemented medium.
Each compound evaluated was prepared as a DMSO stock solution (10 mM). Compounds were tested in duplicate on each plate, with a 10-point serial dilution curve (1:3 dilution). Compound treatment ([…]) was added from the compound dilution plate to the cell plate. The highest compound concentration was 10 μM (final), with a 0.1% final DMSO concentration. Plates were then incubated at 37° C., 5% CO2. After 72 h of compound treatment, cell plates were equilibrated at rt for approximately 30 mins. An equi-volume amount of CellTiter-Glo® Reagent (40 μL) was added to each well. Plates were mixed for 2 mins on an orbital shaker to induce cell lysis and then incubated at rt for 10 mins to stabilize the luminescent signal. Luminescence was recorded using an Envision plate reader according to CellTiter-Glo protocol. IC50 of each compound was calculated using GraphPad Prism by nonlinear regression analysis.
(In general: ATP-based viability assays read luminescence as a measure of living cells.)

What is called IC50 is the concentration that inhibits the measured activity by half.

Mcl-1, sequence (Q07820 whole entry): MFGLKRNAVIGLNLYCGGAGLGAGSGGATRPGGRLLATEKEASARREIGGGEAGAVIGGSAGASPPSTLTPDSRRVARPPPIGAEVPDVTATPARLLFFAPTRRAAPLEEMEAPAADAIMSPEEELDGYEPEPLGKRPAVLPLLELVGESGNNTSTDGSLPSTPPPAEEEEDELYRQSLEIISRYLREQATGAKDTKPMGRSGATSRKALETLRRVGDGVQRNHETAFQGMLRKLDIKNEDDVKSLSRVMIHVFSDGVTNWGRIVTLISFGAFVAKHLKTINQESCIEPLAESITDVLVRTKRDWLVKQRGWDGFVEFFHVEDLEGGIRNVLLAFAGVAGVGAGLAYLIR

As to `Cn1nc2cc1CSc1cc(c3ccccc3c1)OCCCc1c(C(=O)O)n(C)c3c(c(Cl)ccc13)-c1c(nn(C)c1C#N)CSC2` (single isomer, unassigned) [Example 1A, (Z)-1^6-Chloro-2^5-cyano-1^1,2^1,6^1-trimethyl-1^1H,2^1H,6^1H-10-oxa-4,8-dithia-1(7,3)-indola-2(4,3),6(3,5)-dipyrazola-9(3,1)-naphthalenacyclotridecaphane-1^2-carboxylic acid], the 50% inhibitory concentration (IC50) at Mcl-1 was < 0.01 µM; in assay [1], 0.1 to 1 µM.
For the molecule `Cn1nc2cc1CSc1cc(c3ccccc3c1)OCCCc1c(C(=O)O)n(C)c3c(c(Cl)ccc13)-c1c(nn(C)c1C#N)CSC2` (single isomer, unassigned) [Example 1B, (Z)-1^6-Chloro-2^5-cyano-1^1,2^1,6^1-trimethyl-1^1H,2^1H,6^1H-10-oxa-4,8-dithia-1(7,3)-indola-2(4,3),6(3,5)-dipyrazola-9(3,1)-naphthalenacyclotridecaphane-1^2-carboxylic acid], the IC50 at Mcl-1 is > 0.1 µM; in assay [1], > 1 µM.
The matching figures for `Cn1nc2cc1CSc1cc(c3ccccc3c1)OCCCc1c(C(=O)O)n(C)c3c(c(Cl)ccc13)-c1c(nn3c1CCCC3)CSC2` (single isomer, unassigned) [Example 2A, (Z)-1^6-Chloro-1^1,6^1-dimethyl-2^4,2^5,2^6,2^7-tetrahydro-1^1H,6^1H-10-oxa-4,8-dithia-2(3,2)-pyrazolo[1,5-a]pyridina-1(7,3)-indola-6(3,5)-pyrazola-9(3,1)-naphthalenacyclotridecaphane-1^2-carboxylic acid]: < 0.01 µM and < 0.1 µM.
In the same order, the values of `Cn1nc2cc1CSc1cc(c3ccccc3c1)OCCCc1c(C(=O)O)n(C)c3c(c(Cl)ccc13)-c1c(nn3c1CCCC3)CSC2` (single isomer, unassigned) [Example 2B, (Z)-1^6-Chloro-1^1,6^1-dimethyl-2^4,2^5,2^6,2^7-tetrahydro-1^1H,6^1H-10-oxa-4,8-dithia-2(3,2)-pyrazolo[1,5-a]pyridina-1(7,3)-indola-6(3,5)-pyrazola-9(3,1)-naphthalenacyclotridecaphane-1^2-carboxylic acid] are 0.01 to 0.1 µM and > 1 µM.
The matching figures for `Cn1nc2cc1CSc1cc(c3ccccc3c1)OCCCc1c(C(=O)O)n(C)c3c(c(Cl)ccc13)-c1c(nn3c1CCC3)CSC2` (single isomer, unassigned) [Example 3A, (Z)-1^6-Chloro-1^1,6^1-dimethyl-2^5,2^6-dihydro-1^1H,2^4H,6^1H-10-oxa-4,8-dithia-1(7,3)-indola-2(3,2)-pyrrolo[1,2-b]pyrazola-6(3,5)-pyrazola-9(3,1)-naphthalenacyclotridecaphane-1^2-carboxylic acid]: < 0.01 µM and < 0.1 µM.
With `Cn1nc2cc1CSc1cc(c3ccccc3c1)OCCCc1c(C(=O)O)n(C)c3c(c(Cl)ccc13)-c1c(nn3c1CCC3)CSC2` (single isomer, unassigned) [Example 3B, (Z)-1^6-Chloro-1^1,6^1-dimethyl-2^5,2^6-dihydro-1^1H,2^4H,6^1H-10-oxa-4,8-dithia-1(7,3)-indola-2(3,2)-pyrrolo[1,2-b]pyrazola-6(3,5)-pyrazola-9(3,1)-naphthalenacyclotridecaphane-1^2-carboxylic acid], the 50% inhibitory concentration (IC50) at Mcl-1 is 0.01 to 0.1 µM; in assay [1] it was > 1 µM.
Turning to `Cn1nc2cc1CSc1cc(c3ccccc3c1)OCCCc1c(C(=O)O)n(C)c3c(c(Cl)ccc13)-c1c(nn3c1COCC3)CSC2` (single isomer, unassigned) [Example 4A, (Z)-1^6-Chloro-1^1,6^1-dimethyl-2^6,2^7-dihydro-1^1H,2^4H,6^1H-10-oxa-4,8-dithia-2(3,2)-pyrazolo[5,1-c][1,4]oxazina-1(7,3)-indola-6(3,5)-pyrazola-9(3,1)-naphthalenacyclotridecaphane-1^2-carboxylic acid], the values for the IC50 (at Mcl-1; in assay [1]) were < 0.01 µM and 0.1 to 1 µM, respectively.
Regarding `Cn1nc2cc1CSc1cc(c3ccccc3c1)OCCCc1c(C(=O)O)n(C)c3c(c(Cl)ccc13)-c1c(nn3c1COCC3)CSC2` (single isomer, unassigned) [Example 4B, (Z)-1^6-Chloro-1^1,6^1-dimethyl-2^6,2^7-dihydro-1^1H,2^4H,6^1H-10-oxa-4,8-dithia-2(3,2)-pyrazolo[5,1-c][1,4]oxazina-1(7,3)-indola-6(3,5)-pyrazola-9(3,1)-naphthalenacyclotridecaphane-1^2-carboxylic acid], the 50% inhibitory concentration (IC50) is 0.01 to 0.1 µM on Mcl-1 and > 1 µM in assay [1].
For `Cn1nc2cc1CSc1cc(c3ccccc3c1)OCCCc1c(C(=O)O)n(C)c3c(c(Cl)ccc13)-c1c(nn3c1CSC3)CSC2` (single isomer, unassigned) [Example 5A, (Z)-1^6-Chloro-1^1,6^1-dimethyl-1^1H,2^4H,2^6H,6^1H-10-oxa-4,8-dithia-2(3,2)-pyrazolo[1,5-c]thiazola-1(7,3)-indola-6(3,5)-pyrazola-9(3,1)-naphthalenacyclotridecaphane-1^2-carboxylic acid], the values for the half-maximal inhibitory concentration (IC50) (on Mcl-1; in assay [1]) were < 0.01 µM and 0.1 to 1 µM, respectively.
Consider `Cc1[nH]nc2c1-c1c(F)ccc3c(c(C(=O)O)n(C)c13)CCCOc1cc(cc3ccccc13)SCc1cc(nn1C(C)C)CSC2` (single isomer, unassigned) [Example 7B, (Z)-1^6-Fluoro-6^1-isopropyl-1^1,2^5-dimethyl-1^1H,2^1H,6^1H-10-oxa-4,8-dithia-1(7,3)-indola-2(4,3),6(3,5)-dipyrazola-9(3,1)-naphthalenacyclotridecaphane-1^2-carboxylic acid], for which, on Mcl-1, the half-inhibitory concentration (IC50) was < 0.01 µM.
As to `Cn1nc2cc1CSc1cc(c3ccccc3c1)OCCCc1c(C(=O)O)n(C)c3c(c(Cl)ccc13)-c1c(nn3c1CNCC3)CSC2` [Example 23B, (Z)-1^6-Chloro-1^1,6^1-dimethyl-2^4,2^5,2^6,2^7-tetrahydro-1^1H,6^1H-10-oxa-4,8-dithia-2(3,2)-pyrazolo[1,5-a]pyrazina-1(7,3)-indola-6(3,5)-pyrazola-9(3,1)-naphthalenacyclotridecaphane-1^2-carboxylic acid], the IC50 in assay [1] (Homo sapiens, NCI-H929, 72 h) lay within 0.1 to 1 µM.
Same read-out and setting: then `CC(=O)N1CCn2nc3c(c2C1)-c1c(Cl)ccc2c(c(C(=O)O)n(C)c12)CCCOc1cc(cc2ccccc12)SCc1cc(nn1C)CSC3` [Example 24A, (Z)-2^5-Acetyl-1^6-chloro-1^1,6^1-dimethyl-2^4,2^5,2^6,2^7-tetrahydro-1^1H,6^1H-10-oxa-4,8-dithia-2(3,2)-pyrazolo[1,5-a]pyrazina-1(7,3)-indola-6(3,5)-pyrazola-9(3,1)-naphthalenacyclotridecaphane-1^2-carboxylic acid], with 0.1 to 1 µM.
`CN1CCn2nc3c(c2C1)-c1c(Cl)ccc2c(c(C(=O)O)n(C)c12)CCCOc1cc(cc2ccccc12)SCc1cc(nn1C)CSC3` [Example 25A, (Z)-1^6-chloro-1^1,2^5,6^1-trimethyl-2^4,2^5,2^6,2^7-tetrahydro-1^1H,6^1H-10-oxa-4,8-dithia-2(3,2)-pyrazolo[1,5-a]pyrazina-1(7,3)-indola-6(3,5)-pyrazola-9(3,1)-naphthalenacyclotridecaphane-1^2-carboxylic acid] yielded an IC50 in assay [1] (Homo sapiens, NCI-H929, 72 h) of 0.1 to 1 µM.
Molecule `Cn1nc2cc1CSc1cc(c3ccccc3c1)OCCCc1c(C(=O)O)n(C)c3c(c(Cl)ccc13)-c1c(nn3c1CCC3)CNC2` [Example 26A] registered an IC50 in assay [1] (Homo sapiens, NCI-H929, 72 h) of 0.1 to 1 µM.
Regarding `Cn1nc2cc1CCc1cc(c3ccccc3c1)OCCCc1c(C(=O)O)n(C)c3c(c(Cl)ccc13)-c1c(nn3c1CCC3)CNC2` [Example 26B, (Z)-1^6-chloro-1^1,6^1-dimethyl-2^5,2^6-dihydro-1^1H,2^4H,6^1H-10-oxa-4-aza-1(7,3)-indola-2(3,2)-pyrrolo[1,2-b]pyrazola-6(3,5)-pyrazola-9(3,1)-naphthalenacyclotridecaphane-1^2-carboxylic acid], the IC50 in assay [1] is > 1 µM.
Regarding “(Z)-1^6-Fluoro-6^1-isobutyl-1^1,2^1,2^3-trimethyl-1^1H,2^1H,6^1H-10-oxa-4,8-dithia-1(7,3)-indola-2(4,5),6(3,5)-dipyrazola-9(3,1)-naphthalenacyclotridecaphane-1^2-carboxylic acid [Example 18B]”, in assay [1], the IC50 was 0.1 to 1 µM.
In turn, “(Z)-2^5-(tert-Butoxycarbonyl)-1^6-chloro-1^1,6^1-dimethyl-2^4,2^5,2^6,2^7-tetrahydro-1^1H,6^1H-10-oxa-4,8-dithia-2(3,2)-pyrazolo[1,5-a]pyrazina-1(7,3)-indola-6(3,5)-pyrazola-9(3,1)-naphthalenacyclotridecaphane-1^2-carboxylic acid [Example 22A]” gave an IC50 in assay [1] of 0.1 to 1 µM.
Consider “(Z)-2^5-(tert-Butoxycarbonyl)-1^6-chloro-1^1,6^1-dimethyl-2^4,2^5,2^6,2^7-tetrahydro-1^1H,6^1H-10-oxa-4,8-dithia-2(3,2)-pyrazolo[1,5-a]pyrazina-1(7,3)-indola-6(3,5)-pyrazola-9(3,1)-naphthalenacyclotridecaphane-1^2-carboxylic acid [Example 22B]”, for which the IC50 in assay [1] was > 1 µM.
On to “(Z)-6^1-Ethyl-1^6-fluoro-1^1,2^1,2^3-trimethyl-1^1H,2^1H,6^1H-10-oxa-4,8-dithia-1(7,3)-indola-2(4,5),6(3,5)-dipyrazola-9(3,1)-naphthalenacyclotridecaphane-1^2-carboxylic acid [Example 15B]”, for which, in assay [1], the IC50 is > 1 µM.
